Biological target: T1, GSK-3β (Homo sapiens, UniProt P49841)
T1 construct: gene GSK3B
Assay: caliper mobility shift kinase assay with peptide FAM-P15 and ATP
Type: biochemical

T1 sequence (P49841 whole entry): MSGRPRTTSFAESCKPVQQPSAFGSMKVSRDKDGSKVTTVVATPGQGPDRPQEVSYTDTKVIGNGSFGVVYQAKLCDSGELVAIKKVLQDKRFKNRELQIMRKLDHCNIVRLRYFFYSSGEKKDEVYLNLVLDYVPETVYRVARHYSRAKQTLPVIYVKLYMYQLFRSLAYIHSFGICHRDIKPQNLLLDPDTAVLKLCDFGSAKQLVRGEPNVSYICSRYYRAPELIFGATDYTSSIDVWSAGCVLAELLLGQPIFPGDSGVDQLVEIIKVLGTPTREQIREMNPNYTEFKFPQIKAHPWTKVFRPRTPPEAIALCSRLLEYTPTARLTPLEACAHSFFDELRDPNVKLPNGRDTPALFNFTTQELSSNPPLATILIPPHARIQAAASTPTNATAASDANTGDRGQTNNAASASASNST

IC50: 66 ± 2.5 nM
Structure (SMILES): Oc1cc(-c2c[nH]c3ncc(-c4ccc(CNc5ccncc5)cc4)cc23)cc2cccnc12 [B10, 6-(5-(4-((pyridin-4-ylamino)methyl)phenyl)-1H-pyrrolo[2,3-b]pyridin-3-yl)quinolin-8-ol]

From paper PMC7140427, “A Unique GSK-3β inhibitor B10 Has a Direct Effect on Aβ, Targets Tau and Metal Dyshomeostasis, and Promotes Neuronal Neurite Outgrowth” (Cells, 2020)
